Measurements published in ChEMBL document CHEMBL1139716, “Naphtho[2,3-b][1,4]-thiazine-5,10-diones and 3-substituted-1,4-dioxo-1,4-dihydronaphthalen-2-yl-thioalkanoate derivatives: synthesis and biological evaluation as potential antibacterial and antifungal agents” (Bioorg Med Chem Lett, 2006).
Converted amounts (≈) assume the structure as drawn.

Experiments:
Trichophyton benhamiae = assay: Antifungal activity against Trichophyton mentagrophytes by broth microdilution technique; assay type: functional, organism-based, Arthroderma benhamiae
Staphylococcus aureus = assay: Antibacterial activity against Staphylococcus aureus by broth microdilution technique; assay type: functional, organism-based; details: for IC50: read-out: IC50
Pseudomonas aeruginosa = assay: Antibacterial activity against Pseudomonas aeruginosa by broth microdilution technique; assay type: functional, organism-based; details: for IC50: read-out: IC50
Sporothrix schenckii = assay: Antifungal activity against Sporothrix schenckii by broth microdilution technique; assay type: functional, organism-based
Klebsiella pneumoniae = assay: Antibacterial activity against Klebsiella pneumoniae by broth microdilution technique; assay type: functional, organism-based; details: for IC50: read-out: IC50
Aspergillus fumigatus = assay: Antifungal activity against Aspergillus fumigatus by broth microdilution technique; assay type: functional, organism-based
Escherichia coli = assay: Antibacterial activity against Escherichia coli by broth microdilution technique; assay type: functional, organism-based; details: for IC50: read-out: IC50
Cryptococcus neoformans = assay: Antifungal activity against Cryptococcus neoformans by broth microdilution technique; assay type: functional, organism-based
Candida albicans = assay: Antifungal activity against Candida albicans by broth microdilution technique; assay type: functional, organism-based
Candida parapsilosis = assay: Antifungal activity against Candida parapsilosis ATCC 22019 by broth microdilution technique; assay type: functional, organism-based; details: Lodderomyces parapsilosis
Enterococcus faecalis = assay: Antibacterial activity against Streptococcus faecalis by broth microdilution technique; assay type: functional, organism-based; details: for IC50: read-out: IC50

| Compound | IC50 (Trichophyton benhamiae) | MIC (Trichophyton benhamiae) | MIC (Staphylococcus aureus; Staphylococcus aureus) | IC50 (Staphylococcus aureus; Staphylococcus aureus) | MIC (Pseudomonas aeruginosa; Pseudomonas aeruginosa) | IC50 (Pseudomonas aeruginosa; Pseudomonas aeruginosa) | IC50 (Sporothrix schenckii) | MIC (Sporothrix schenckii) | MIC (Klebsiella pneumoniae; Klebsiella pneumoniae) | IC50 (Klebsiella pneumoniae; Klebsiella pneumoniae) | IC50 (Aspergillus fumigatus) | MIC (Aspergillus fumigatus) | IC50 (Escherichia coli; Escherichia coli) | IC50 (Cryptococcus neoformans) | MIC (Cryptococcus neoformans) | IC50 (Candida albicans) | MIC (Candida albicans) | IC50 (Candida parapsilosis) | MIC (Candida parapsilosis) | MIC (Enterococcus faecalis; Enterococcus faecalis) | further results |
| --- | --- | --- | --- | --- | --- | --- | --- | --- | --- | --- | --- | --- | --- | --- | --- | --- | --- | --- | --- | --- | --- |
| Cc1sc2c(=O)c3ccccc3c(=O)c=2n(C)c1O | 0.9 µg/mL (≈ 3.29 µM) | 1.56 µg/mL (≈ 5.71 µM) | 3.12 µg/mL (≈ 11.4 µM) | 1.92 µg/mL (≈ 7.02 µM) | 50 µg/mL (≈ 183 µM) | 49.3 µg/mL (≈ 180 µM) | 2.84 µg/mL (≈ 10.4 µM) | 3.12 µg/mL (≈ 11.4 µM) | 3.12 µg/mL (≈ 11.4 µM) | 1.98 µg/mL (≈ 7.24 µM) | 3.98 µg/mL (≈ 14.6 µM) | 6.25 µg/mL (≈ 22.9 µM) | 0.96 µg/mL (≈ 3.51 µM) | 1.54 µg/mL (≈ 5.63 µM) | 3.12 µg/mL (≈ 11.4 µM) | 5.3 µg/mL (≈ 19.4 µM) | 6.25 µg/mL (≈ 22.9 µM) | 10.4 µg/mL (≈ 38 µM) | 12.5 µg/mL (≈ 45.7 µM) | 3.12 µg/mL (≈ 11.4 µM) | MIC (Escherichia coli; Escherichia coli): 1.56 µg/mL (≈ 5.71 µM); IC50 (Enterococcus faecalis; Enterococcus faecalis): 2.58 µg/mL (≈ 9.44 µM) |
| CCOC(=O)C(C)SC1=C(Cl)C(=O)c2ccccc2C1=O (centres undefined) | > 50 µg/mL | > 50 µg/mL | 12.5 µg/mL (≈ 38.5 µM) | 7.95 µg/mL (≈ 24.5 µM) | 50 µg/mL (≈ 154 µM) | 48.3 µg/mL (≈ 149 µM) | 22.7 µg/mL (≈ 69.8 µM) | 25 µg/mL (≈ 77 µM) | 50 µg/mL (≈ 154 µM) | 28.3 µg/mL (≈ 87.3 µM) | > 50 µg/mL | > 50 µg/mL | 6.34 µg/mL (≈ 19.5 µM) | 11.5 µg/mL (≈ 35.3 µM) | 12.5 µg/mL (≈ 38.5 µM) | > 50 µg/mL | > 50 µg/mL | > 50 µg/mL | > 50 µg/mL | 12.5 µg/mL (≈ 38.5 µM) | MIC (Escherichia coli; Escherichia coli): 12.5 µg/mL (≈ 38.5 µM); IC50 (Enterococcus faecalis; Enterococcus faecalis): 9.52 µg/mL (≈ 29.3 µM) |
| C[C@@H]1[C@H](O)[C@@H](C)/C=C/C=C/C=C/C=C/C=C/C=C/C=C/[C@H](O[C@@H]2O[C@H](C)[C@@H](O)[C@H](N)[C@@H]2O)C[C@@H]2O[C@](O)(C[C@@H](O)C[C@@H](O)[C@H](O)CC[C@@H](O)C[C@@H](O)CC(=O)O[C@H]1C)C[C@H](O)[C@H]2C(=O)O [AMPHOTERICIN B] | 0.09 µg/mL (≈ 0.0974 µM) | 0.12 µg/mL (≈ 0.13 µM) |  |  |  |  | 0.08 µg/mL (≈ 0.0866 µM) | 0.12 µg/mL (≈ 0.13 µM) |  |  | 0.38 µg/mL (≈ 0.411 µM) | 0.5 µg/mL (≈ 0.541 µM) |  | 0.04 µg/mL (≈ 0.0433 µM) | 0.06 µg/mL (≈ 0.0649 µM) | 0.09 µg/mL (≈ 0.0974 µM) | 0.12 µg/mL (≈ 0.13 µM) | 0.11 µg/mL (≈ 0.119 µM) | 0.12 µg/mL (≈ 0.13 µM) |  |  |
| GENTAMICIN |  |  |  |  |  |  |  |  |  |  |  |  |  |  |  |  |  |  |  |  | MIC (Staphylococcus aureus): 6.25 µg/mL; MIC (Pseudomonas aeruginosa): 25 µg/mL; MIC (Klebsiella pneumoniae): 0.78 µg/mL; MIC (Escherichia coli): 0.18 µg/mL; MIC (Enterococcus faecalis): 0.78 µg/mL |
| OC(Cn1cncn1)(Cn1cncn1)c1ccc(F)cc1F [FLUCONAZOLE] | 0.63 µg/mL (≈ 2.06 µM) | 1 µg/mL (≈ 3.27 µM) |  |  |  |  | 1.45 µg/mL (≈ 4.73 µM) | 2 µg/mL (≈ 6.53 µM) |  |  | 1.06 µg/mL (≈ 3.46 µM) | 2 µg/mL (≈ 6.53 µM) |  | 0.46 µg/mL (≈ 1.5 µM) | 1 µg/mL (≈ 3.27 µM) |  | 0.5 µg/mL (≈ 1.63 µM) |  | 1 µg/mL (≈ 3.27 µM) |  |  |
| CCOC(=O)C(C)SC1=C(NN)C(=O)c2ccccc2C1=O (centres undefined) | 4.5 µg/mL (≈ 14 µM) | 6.25 µg/mL (≈ 19.5 µM) | 6.25 µg/mL (≈ 19.5 µM) | 5.65 µg/mL (≈ 17.6 µM) | 6.25 µg/mL (≈ 19.5 µM) | 4.62 µg/mL (≈ 14.4 µM) | 22 µg/mL (≈ 68.7 µM) | 25 µg/mL (≈ 78 µM) | 6.25 µg/mL (≈ 19.5 µM) | 5.28 µg/mL (≈ 16.5 µM) | 22.4 µg/mL (≈ 69.8 µM) | 25 µg/mL (≈ 78 µM) | 5.2 µg/mL (≈ 16.2 µM) | 13.3 µg/mL (≈ 41.6 µM) | 25 µg/mL (≈ 78 µM) | 24.2 µg/mL (≈ 75.7 µM) | 50 µg/mL (≈ 156 µM) | 17.3 µg/mL (≈ 54.1 µM) | 25 µg/mL (≈ 78 µM) | 25 µg/mL (≈ 78 µM) | MIC (Escherichia coli; Escherichia coli): 6.25 µg/mL (≈ 19.5 µM); IC50 (Enterococcus faecalis; Enterococcus faecalis): 22.3 µg/mL (≈ 69.5 µM) |
| CCOC(=O)CSC1=C(Cl)C(=O)c2ccccc2C1=O | > 50 µg/mL | > 50 µg/mL | 12.5 µg/mL (≈ 40.2 µM) | 6.98 µg/mL (≈ 22.5 µM) | 50 µg/mL (≈ 161 µM) | 44.4 µg/mL (≈ 143 µM) | 18.7 µg/mL (≈ 60.3 µM) | 25 µg/mL (≈ 80.4 µM) | 50 µg/mL (≈ 161 µM) | 33.2 µg/mL (≈ 107 µM) | > 50 µg/mL | > 50 µg/mL | 8.56 µg/mL (≈ 27.5 µM) | 10.9 µg/mL (≈ 35.2 µM) | 12.5 µg/mL (≈ 40.2 µM) | > 50 µg/mL | > 50 µg/mL | > 50 µg/mL | > 50 µg/mL | 12.5 µg/mL (≈ 40.2 µM) | MIC (Escherichia coli; Escherichia coli): 12.5 µg/mL (≈ 40.2 µM); IC50 (Enterococcus faecalis; Enterococcus faecalis): 9.24 µg/mL (≈ 29.7 µM) |
| CC1(C)S[C@@H]2[C@H](NC(=O)[C@H](N)c3ccccc3)C(=O)N2[C@H]1C(=O)O [AMPICILLIN] |  |  | 0.9 µg/mL (≈ 2.58 µM) | 0.74 µg/mL (≈ 2.12 µM) | 50 µg/mL (≈ 143 µM) | 48.7 µg/mL (≈ 139 µM) |  |  | 0.09 µg/mL (≈ 0.258 µM) | 0.08 µg/mL (≈ 0.229 µM) |  |  | 0.01 µg/mL (≈ 0.0286 µM) |  |  |  |  |  |  | 0.02 µg/mL (≈ 0.0572 µM) | IC50 (Enterococcus faecalis; Enterococcus faecalis): 0.01 µg/mL (≈ 0.0286 µM) |
